Source: patent US20260091136A1, “USING ENHO GENE THERAPY TO TREAT CARDIOMETABOLIC DISEASE” (University of Pittsburgh-of the Commonwealth System of …, priority 2023, published 2026)
“Also recorded” adds a separate entry of the source.

Legend:
GPR19 = experiment: Wildtype and GPR19-knockout mice on HFpEF diet with or without Adropin; type: in vivo
Description: Wildtype and GPR19-knockout (GPR19-KO) mice were given normal chow (control mice), HFpEF diet without Adropin, or HFpEF with Adropin.

HFpEF mice = experiment: Intraperitoneal glucose tolerance test (IPGTT), cohort 2; type: in vivo, C57BL/6J mice
Description: Twelve week-old C57BL/6J wild-type male mice were exposed to normal chow, or a combination of 60% high fat diet plus N^ω-nitro-L-arginine methyl ester (L-NAME: 0.5 g/L in drinking water) to induce HFpEF. After 8 weeks of diet, mice were randomly assigned to a control HFpEF group, or to a group receiving daily intraperitoneal injections of recombinant Adropin (450 nmol/kg) for the remaining weeks of the study. All animal experiments were approved by the University of Pittsburgh Institutional Animal Care and Use Committee. […] These changes occurred in the absence of systolic dysfunction (FIG. 6). Each marker of cardiac dysfunction was absent in HFpEF mice treated with Adropin (FIG. 6).
Animal Care and Use. Male C57BL/6J 8-week-old mice were obtained from the Jackson Laboratory and maintained on chow for 4 weeks to acclimate to their new environment. Animals were housed in the University of Pittsburgh animal facility under standard conditions with ad libitum access to water and food and maintained on a constant 12-hour light/dark cycle. […]
Intraperitoneal Glucose Tolerance Test (IPGTT). […] Blood glucose was measured by tail bleed at set time points using a Bayer Contour Next EZ handheld glucometer (t=15, 30, 45, 60, and 120 min).

LCAD = LCAD activity assay in cardiac tissue; type: in vivo, C57BL/6J mice; settings: isolated cardiac tissues; downregulated in HFpEF vs chow
Description: (§1) Animal Care and Use. Male C57BL/6J 8-week-old mice were obtained from the Jackson Laboratory and maintained on chow for 4 weeks to acclimate to their new environment. Animals were housed in the University of Pittsburgh animal facility under standard conditions with ad libitum access to water and food and maintained on a constant 12-hour light/dark cycle. At 12 weeks of age, the mice were exposed to normal chow (Chow; 60% carbohydrate, 26% protein, 14% fat), or a combination of high-fat diet (HFD; 20% carbohydrate, 20% protein, 60% fat) plus No-nitro-L-arginine methyl ester (L-NAME: 0.5 g/L) supplemented in their drinking water after adjusting the pH to 7.4 with 1N NaOH to induce HFpEF [10]. For cohort 1, the mice were subject to the HFpEF diet for 15 weeks. For cohort 2, after 8 weeks of diet, mice were randomly assigned to a control or treatment group receiving daily intraperitoneal injections of either vehicle or recombinant adropin at 450 nmol/kg animal weight prepared in PBS with 0.1% BSA for the remaining 5 weeks of the study. L-NAME supplemented drinking water was changed weekly and adropin was made fresh and sterile filtered before each use.
LCAD Activity Assay/Biochemical Assays/Enzyme activity assay. […] The reaction was initiated with 60 µM acyl-CoA, and the rate of absorbance change was measured/observed at 600 nm over 45 min. […]

[1] = system: hexosamine biosynthesis pathway (HBP); experiment: Immunoblotting of cardiac proteins (O-GlcNAc, GFAT, OGT, OGA, CD36, PDK4, PLIN5); type: in vivo, C57BL/6J mice; settings: heart; for CD36 abundance: to levels observed in chow mice; for total cardiac protein O-GlcNAcylation: to levels observed in chow mice (P=0.06 in b192)
Description: as §1
Protein Isolation and Immunoblotting. Heart tissues were rapidly harvested following euthanasia, weighed, RV discarded and LV flash-frozen in liquid nitrogen. For protein isolation, tissues were minced and lysed in CHAPS buffer (1% CHAPS, 150 mM NaCl, 10 mM HEPES, pH 7.4) using a VWR 4-Place Mini Bead Mill, then incubated on ice for ˜2.5 h. Homogenates were spun at 10,000 g at 4° C. for 10 min, and the supernatants collected for immunoblotting. For immunoblotting, protein lysates were quantitated using a BioDrop LITE Analyzer, prepared in LDS sample buffer, separated using Bolt SDS-PAGE 4-12% or 12% Bis-Tris Plus gels, and transferred to nitrocellulose membranes. Membranes were blocked using SuperBlock (PBS) Blocking Buffer and incubated overnight in the following primary antibodies: rabbit PDK4 (PA5-13776); mouse 0-GlcNAc (9875), rabbit GFAT (D12F4), rabbit OGT (D1D8Q), rabbit OGA (E9C5U), rabbit GAPDH (2118S); rabbit CD36 (18836-1-AP), rabbit CPT1b (22170-1-AP), rabbit LCAD (17526-1-AP), and GCN5L1 as previously reported (Scott et al., 2012). Protein loading was confirmed using GAPDH as a loading control. Fluorescent […] or anti-rabbit secondary antibodies (red, 700 nm; green, 800 nm) were used to detect expression levels. Images were obtained using Licor Odyssey CLx System and protein densitometry was measured using the LiCor Image Studio Lite Ver. 5.2 Software.

[2] = wildtype HFpEF mice that received Adropin vs wildtype control mice
[3] = Adropin-treated HFpEF mice, listed as adropin

Substance: Adropin: recombinant Adropin peptide hormone encoded by the ENHO gene; full-length (SEQ ID NO: 1) or cleaved product of amino acids 34-76 (SEQ ID NO: 2) (CHSRSADVDSLSESSPNSSPGPCPEKAPPPQKPSHEGSYLLQP)
- IVRT (GPR19; GPR19-KO HFpEF mice vs GPR19-KO control mice, in contrast to wildtype, p-value <0.01): significantly greater
- diastolic function (MV E/e′) (GPR19; GPR19-KO mice vs control mice, in contrast to wildtype, p-value <0.001): remained significantly lower
- fasted body weight of HFpEF mice relative to HFpEF mice that received Adropin (GPR19; GPR19-KO mice, p-value <0.0001): significantly greater
- Adropin-mediated improvement of diastolic function in GPR19-KO HFpEF mice (GPR19; fasted body weight, MV E/e′ and IVRT): not observed; also recorded: GPR19-dependent
- body weight of GPR19-KO HFpEF mice that received Adropin relative to wildtype HFpEF mice that received Adropin (GPR19; p-value <0.0001): significantly greater
- diastolic function (MV E/e′) (GPR19; wildtype HFpEF mice that received Adropin vs wildtype HFpEF mice without Adropin): increased on average
- IVRT (GPR19; [2]): not significantly different
- diastolic function (MV E/e′) (GPR19; [2]): not significantly different
- IVRT (GPR19; wildtype HFpEF which received Adropin vs wildtype HFpEF mice without treatment, p-value <0.01): significantly lower
- fasted body weight of HFpEF mice relative to HFpEF mice that received Adropin (GPR19; wildtype mice, p-value <0.0001): significantly greater
- increase in circulating blood glucose levels (IPGTT) (HFpEF mice; HFpEF increase vs chow, after adropin treatment): significantly attenuated
- whole-body glucose tolerance / sensitivity (HFpEF mice; HFpEF+Adropin vs HFpEF, 450 nmol/kg daily i.p.): significantly restored; also recorded: significantly improves
- LCAD enzymatic activity (oxidation rates) (LCAD): restored
- PDK4 enzyme expression [1]: no observed changes
- inhibition of cardiac protein O-GlcNAcylation by mediating expression of OGT and OGA [1]: did not inhibit
- GFAT expression ([1]; Adropin-treated HFpEF mice): did not reduce
- CD36 abundance ([1]; Adropin-treated HFpEF mice): restored
- total cardiac protein O-GlcNAcylation ([1]; Adropin-treated HFpEF mice): restored; also recorded: decrease
- total cardiac protein O-GlcNAcylation [1, 3]: restored
- CD36 abundance [1, 3]: restored; also recorded: significantly attenuated
- PLIN5 expression (aberrant fatty acid utilization) ([1]; increased in HFpEF vs chow): corrected
